Where a name gives a salt, the structure may show the parent alone. Read-outs that look alike come from different tables or passages of the source.
Tests used:
[1] = exposure to humidity, cited from earlier work
[2] = for Related Substances: Chlorothiamine (Impurity C) / Related Substances: Thiamine sulfate ester (Impurity A) / Related Substances: Desmethylthiamine (Impurity B) / Related Substances: Total Impurities: EP 8.6 HPLC Method; for Related Substances: Chlorothiamine (Impurity C) / Related Substances: Thiamine sulfate ester (Impurity A): limit NMT 0.15%; for Related Substances: Desmethylthiamine (Impurity B): limit NMT 0.3%; for Related Substances: Total Impurities: limit NMT 0.5%; for Assay: limit 98.0%-102.0%; for Sulfates: limit EP 8.6 NMT 300 ppm; for Solution S: limit EP 8.6 Practically Clear and Odorless; for Heavy Metals / Appearance: limit Meets EP 8.6; for ID: Chloride / ID: FTIR / Limit of Nitrate: limit Meets USP 39; for Absorbance of Solution: limit USP 39 NMT 0.025 Abs; for Residue on Ignition: limit USP 39 NMT 0.2%; for Water: limit USP 39 NMT 5.0%; for pH: limit USP 39 pH 2.7-3.4
[3] = cited from earlier work
[4] = 36 Months, listed as T111116, hydrochloride monohydrate
[5] = 36 Months, listed as T111201, hydrochloride monohydrate
[6] = 36 Months, listed as T111202, hydrochloride monohydrate
[7] = Time 0, listed as T111116, hydrochloride monohydrate
[8] = Time 0, listed as T111201, hydrochloride monohydrate
[9] = Time 0, listed as T111202, hydrochloride monohydrate

In the case of `Cc1ncc(C[n+]2csc(CCO)c2C)c(N)n1` [Example 1, Thiamine Hydrochloride Hemihydrate], the Hygroscopicity ([1]; Hydrochloride Hemihydrate) is listed as “less hygroscopic”.

In the case of `Cc1ncc(C[n+]2csc(CCO)c2C)c(N)n1` [Thiamine hydrochloride monohydrate], the Hygroscopicity ([1]; hydrochloride monohydrate) is listed as “hygroscopic”, the “Related Substances: Chlorothiamine (Impurity C)” value ([2]; 36 Months) is listed as <0.05% and the “Related Substances: Thiamine sulfate ester (Impurity A)” value (shortened to “Related Substances … (Impurity A)”) ([2]; 36 Months) is listed as 0.07%. For the same molecule, the “Related Substances: Desmethylthiamine (Impurity B)” value (“Related Substances … (Impurity B)” below) [2, 4] was 0.07%, the “Related Substances … (Impurity B)” value [2, 5] was 0.07% and the “Related Substances … (Impurity B)” value [2, 6] was 0.06%. For the same molecule, the “Related Substances: Total Impurities” value [2, 4] was 0.13%, the “Related Substances: Total Impurities” value [2, 5] was 0.14% and the “Related Substances: Total Impurities” value [2, 6] was 0.13%. For the same molecule, the Assay [2, 4] was 99.8%, the Assay [2, 5] was 99.6% and the Assay [2, 6] was 99.1%. For the same molecule, the Sulfates ([2]; 36 Months) was “Complies”, the “Solution S” value ([2]; 36 Months) was “Complies” and the “Heavy Metals” value ([2]; 36 Months) was “Complies”. The Appearance ([2]; 36 Months, sealed foil lined polypropylene bags) was “Complies”, the “ID: Chloride” value ([2]; 36 Months) was “Complies” and the “ID: FTIR” value ([2]; 36 Months) was “Complies”. The “Limit of Nitrate” value ([2]; 36 Months) was “Complies”, the “Absorbance of Solution” value [2, 4] was 0.004 Abs and the “Absorbance of Solution” value [2, 5] was 0.013 Abs. The “Absorbance of Solution” value [2, 6] was 0.007 Abs, the “Residue on Ignition” value ([2]; 36 Months) was 0.0% and the Water [2, 4] was 3.7%. For the same molecule, the Water [2, 5] was 2.7%, the Water [2, 6] was 4.0% and the pH [2, 4] was “pH 2.9”. The pH [2, 5] was “pH 3.0”, the pH [2, 6] was “pH 3.1” and the “Related Substances: Chlorothiamine (Impurity C)” value ([2]; Time 0) was <0.05%. For the same molecule, the “Related Substances … (Impurity A)” value [2, 7] was <0.05%, the “Related Substances … (Impurity A)” value [2, 8] was 0.07% and the “Related Substances … (Impurity A)” value [2, 9] was 0.06%. For the same molecule, the “Related Substances … (Impurity B)” value [2, 7] was <0.05%, the “Related Substances … (Impurity B)” value [2, 8] was 0.07% and the “Related Substances … (Impurity B)” value [2, 9] was 0.06%. For the same molecule, the “Related Substances: Total Impurities” value [2, 7] was “Complies”, the “Related Substances: Total Impurities” value [2, 8] was 0.4% and the “Related Substances: Total Impurities” value [2, 9] was 0.12%. It also gave an Assay [2, 7] of 99.0%, an Assay [2, 8] of 98.6% and an Assay [2, 9] of 99.2%. The Sulfates ([2]; Time 0) was “Complies”, the “Solution S” value ([2]; Time 0) was “Complies” and the Appearance ([2]; Time 0) was “Complies”. For the same molecule, the “Heavy Metals” value ([2]; Time 0) was “Complies”, the “ID: Chloride” value ([2]; Time 0) was “Complies” and the “ID: FTIR” value ([2]; Time 0) was “Complies”. For the same molecule, the “Limit of Nitrate” value ([2]; Time 0) was “Complies”, the “Absorbance of Solution” value [2, 7] was 0.005 Abs and the “Absorbance of Solution” value [2, 8] was 0.008 Abs. For the same molecule, the “Absorbance of Solution” value ([2]; Time 0, unit printed as %) was 0.007%, the “Residue on Ignition” value ([2]; Time 0) was 0.0% and the Water [2, 7] was 3.2%. The Water [2, 8] was 2.0%, the Water [2, 9] was 3.3% and the pH [2, 7] was “pH 3.3”. The pH [2, 8] was “pH 3.2”, the pH [2, 9] was “pH 3.2” and the Storage stability ([2]; protected from moisture, […], USP or EP testing) was “stability up to three years”.

For `Cc1ncc(C[n+]2csc(CCO)c2C)c(N)n1` [Thiamine hydrochloride], the Solubility in water [3] is listed as “high solubility in water”.

In the case of `Cc1ncc(C[n+]2csc(CCO)c2C)c(N)n1` [anhydrous form, Thiamine hydrochloride], the Hygroscopicity ([1]; hydrochloride) is listed as “readily absorbs moisture to form the monohydrate and hemihydrate”.

— US9663507B1, “Crystallisation of thiamine hydrochloride” (Topchem Pharmaceuticals Limited, priority 2016, dated 2017)
